Activity calls are given as the source filed them.
How the values were obtained:
[1] = reduction of Shn3 3'UTR-driven luciferase in osteoblasts – cell-based, Clone20 osteoblasts, firefly luciferase, cherry-picked, dose response (AID 624132); type: functional;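 further: firefly luciferase luminescence from reporter carrying the Shn3 3'UTR in osteoblasts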
Estrogen receptor [2] = target: T1, Estrogen receptor (Homo sapiens, UniProt P03372); assay: ERα coactivator recruitment enhancers – biochemical, TR-FRET, ERα LBD, dose response (AID 737)
T1 sequence (P03372 whole entry): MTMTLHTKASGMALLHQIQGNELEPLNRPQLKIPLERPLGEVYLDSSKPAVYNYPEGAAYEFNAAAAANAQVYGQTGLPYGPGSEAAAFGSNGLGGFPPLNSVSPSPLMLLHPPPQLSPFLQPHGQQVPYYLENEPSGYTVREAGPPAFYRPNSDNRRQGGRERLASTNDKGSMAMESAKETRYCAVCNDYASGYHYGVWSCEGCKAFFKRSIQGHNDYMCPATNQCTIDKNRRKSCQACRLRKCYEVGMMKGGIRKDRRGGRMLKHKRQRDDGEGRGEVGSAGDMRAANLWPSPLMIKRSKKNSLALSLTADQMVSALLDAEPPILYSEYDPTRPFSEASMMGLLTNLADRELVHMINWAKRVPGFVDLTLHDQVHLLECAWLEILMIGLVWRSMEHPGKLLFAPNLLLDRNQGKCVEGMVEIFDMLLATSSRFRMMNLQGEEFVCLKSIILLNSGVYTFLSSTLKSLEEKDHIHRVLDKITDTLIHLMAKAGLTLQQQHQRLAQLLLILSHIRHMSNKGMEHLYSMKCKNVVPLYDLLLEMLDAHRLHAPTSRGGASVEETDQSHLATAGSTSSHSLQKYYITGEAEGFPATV

[3] = non-specific 3'UTR reporter inhibition in Clone20-Shn3RL – cell-based, Renilla luciferase, cherry-picked, counter-screen for Shn3 inhibitor project, dose response (AID 624133); type: functional
[4] = loss of viability in HepG2 cells – cell-based, CellTiter-Glo, cherry-picked, cytotoxicity control for Shn3 inhibitor project, dose response (AID 624134); type: functional
[5] = HIV-1 Vif–A3G interaction blockers – biochemical, TR-FRET, GST-Vif 1-94, biotin-A3G peptide, dose response retest, primary screen (AID 1117319); type: functional;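 further: TR-FRET signal of purified GST-Vif binding a biotinylated A3G peptide; inhibitors lower the FRET signal by blocking Vif and A3G binding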
[6] = target: Peroxisome proliferator-activated receptor gamma/Nuclear receptor coactivator 1 (Homo sapiens, UniProt P37231); type: functional;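 further: agonist potency as compounds enhance coactivator SRC-1 recruitment to PPARgamma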
Chain of Peroxisome proliferator-activated receptor gamma/Nuclear receptor coactivator 1 (P37231 whole entry): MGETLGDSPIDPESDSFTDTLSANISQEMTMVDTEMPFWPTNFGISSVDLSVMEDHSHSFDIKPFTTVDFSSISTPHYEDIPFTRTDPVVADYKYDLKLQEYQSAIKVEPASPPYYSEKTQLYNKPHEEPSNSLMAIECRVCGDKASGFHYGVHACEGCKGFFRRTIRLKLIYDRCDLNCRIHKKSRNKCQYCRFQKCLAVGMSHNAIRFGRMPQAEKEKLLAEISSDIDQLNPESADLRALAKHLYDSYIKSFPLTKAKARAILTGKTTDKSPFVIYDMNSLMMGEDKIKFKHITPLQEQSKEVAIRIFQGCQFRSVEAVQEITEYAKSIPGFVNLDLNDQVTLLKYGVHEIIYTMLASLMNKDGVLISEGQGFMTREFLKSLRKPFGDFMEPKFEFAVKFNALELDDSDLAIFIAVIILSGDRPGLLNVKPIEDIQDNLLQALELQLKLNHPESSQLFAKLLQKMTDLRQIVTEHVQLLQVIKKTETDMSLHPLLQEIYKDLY
Chain of Peroxisome proliferator-activated receptor gamma/Nuclear receptor coactivator 1 (Q15788 whole entry, further chain): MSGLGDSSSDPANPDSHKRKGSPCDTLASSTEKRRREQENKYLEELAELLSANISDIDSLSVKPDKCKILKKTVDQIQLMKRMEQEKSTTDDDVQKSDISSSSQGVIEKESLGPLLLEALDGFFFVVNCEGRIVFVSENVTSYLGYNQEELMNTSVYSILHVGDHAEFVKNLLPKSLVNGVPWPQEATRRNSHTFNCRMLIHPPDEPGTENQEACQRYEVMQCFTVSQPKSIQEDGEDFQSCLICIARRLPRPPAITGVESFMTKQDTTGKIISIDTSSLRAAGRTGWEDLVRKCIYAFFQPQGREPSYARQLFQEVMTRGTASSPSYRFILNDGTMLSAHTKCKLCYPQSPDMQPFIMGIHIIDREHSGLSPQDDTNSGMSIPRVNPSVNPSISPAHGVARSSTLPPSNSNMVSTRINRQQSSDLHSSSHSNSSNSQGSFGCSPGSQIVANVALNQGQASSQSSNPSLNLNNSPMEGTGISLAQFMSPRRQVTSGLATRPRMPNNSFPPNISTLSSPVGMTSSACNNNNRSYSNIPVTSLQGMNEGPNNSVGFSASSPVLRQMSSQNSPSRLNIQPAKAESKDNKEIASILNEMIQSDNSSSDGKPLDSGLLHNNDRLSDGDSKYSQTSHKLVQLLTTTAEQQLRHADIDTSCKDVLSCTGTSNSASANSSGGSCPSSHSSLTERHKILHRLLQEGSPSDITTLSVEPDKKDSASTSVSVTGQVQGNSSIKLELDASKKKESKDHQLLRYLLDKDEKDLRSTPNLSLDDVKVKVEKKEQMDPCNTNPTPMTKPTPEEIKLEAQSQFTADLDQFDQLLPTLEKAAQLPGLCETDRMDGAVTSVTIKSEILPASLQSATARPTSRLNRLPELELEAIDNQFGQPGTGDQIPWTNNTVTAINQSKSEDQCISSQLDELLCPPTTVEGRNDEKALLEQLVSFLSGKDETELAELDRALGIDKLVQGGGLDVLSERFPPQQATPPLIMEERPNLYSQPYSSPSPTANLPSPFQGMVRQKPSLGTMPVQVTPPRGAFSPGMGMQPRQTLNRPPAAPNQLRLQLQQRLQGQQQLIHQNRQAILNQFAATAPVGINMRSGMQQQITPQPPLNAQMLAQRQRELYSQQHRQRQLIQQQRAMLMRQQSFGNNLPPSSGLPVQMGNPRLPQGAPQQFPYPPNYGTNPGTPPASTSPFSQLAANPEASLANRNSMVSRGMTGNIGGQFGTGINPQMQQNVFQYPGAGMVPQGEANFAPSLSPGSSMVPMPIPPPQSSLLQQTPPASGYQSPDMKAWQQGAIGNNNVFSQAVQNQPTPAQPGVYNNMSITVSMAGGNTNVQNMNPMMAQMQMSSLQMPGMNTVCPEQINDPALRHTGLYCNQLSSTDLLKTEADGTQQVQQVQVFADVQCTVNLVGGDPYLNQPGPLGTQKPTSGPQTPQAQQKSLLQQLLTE

Orexin receptor type 2 [7] = target: T2, Orexin receptor type 2 (Homo sapiens, UniProt O43614); assay: Counterscreen assay for antagonists of the orexin 1 receptor (OX1R; HCRTR1): Fluorescence-based cell-based dose response assay for antagonists of the orexin 2 receptor (OX2R; HCRTR2), run by assay provider.; type: functional
T2 sequence (O43614 whole entry): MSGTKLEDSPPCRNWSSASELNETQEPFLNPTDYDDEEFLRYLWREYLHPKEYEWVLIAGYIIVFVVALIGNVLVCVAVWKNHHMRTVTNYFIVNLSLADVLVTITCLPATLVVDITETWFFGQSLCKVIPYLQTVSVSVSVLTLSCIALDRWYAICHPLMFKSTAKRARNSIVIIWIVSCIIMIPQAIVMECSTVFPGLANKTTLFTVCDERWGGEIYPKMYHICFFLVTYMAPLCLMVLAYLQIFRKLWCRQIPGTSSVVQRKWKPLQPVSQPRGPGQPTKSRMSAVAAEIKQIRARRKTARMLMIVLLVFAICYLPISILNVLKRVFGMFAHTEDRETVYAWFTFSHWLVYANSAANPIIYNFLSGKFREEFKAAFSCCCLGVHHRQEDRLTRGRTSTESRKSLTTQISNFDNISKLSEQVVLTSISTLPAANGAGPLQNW

[8] = Luminescence Cell-Based Dose Response HTS to Identify Activators of Luciferase Translation or Activity in H4 […] Cells. [Related pubchem assays: 1829 (Project Summary), 1814 (Primary HTS)]; type: functional
[9] = target: T3, Orexin/Hypocretin receptor type 1 (Homo sapiens, UniProt O43613); assay: (§1) Fluorescence-based cell-based high throughput dose response assay for antagonists of the orexin 1 receptor (OX1R; HCRTR1). [Related pubchem assays (depositor defined):AID434989, AID435008, AID463079, AID485270, AID492963, AID492964, AID492965, AID493232, AID504717, AID504718]; type: functional
T3 sequence (O43613 whole entry): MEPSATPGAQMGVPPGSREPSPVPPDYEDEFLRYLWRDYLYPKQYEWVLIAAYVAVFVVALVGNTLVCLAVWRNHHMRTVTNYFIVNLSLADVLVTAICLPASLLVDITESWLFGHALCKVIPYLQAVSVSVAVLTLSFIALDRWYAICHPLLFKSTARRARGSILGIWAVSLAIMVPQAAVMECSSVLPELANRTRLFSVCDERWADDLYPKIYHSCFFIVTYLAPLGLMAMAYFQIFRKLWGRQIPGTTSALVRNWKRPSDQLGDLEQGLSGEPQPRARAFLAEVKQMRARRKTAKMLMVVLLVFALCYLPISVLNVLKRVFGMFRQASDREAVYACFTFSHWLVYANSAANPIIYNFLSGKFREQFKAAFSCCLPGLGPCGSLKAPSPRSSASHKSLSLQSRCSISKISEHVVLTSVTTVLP

[10] = target: Peroxisome proliferator-activated receptor gamma/Nuclear receptor coactivator 3 (Homo sapiens, UniProt P37231); type: functional;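 further: agonist potency for raising coactivator recruitment to the receptor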
Orexin receptor type 2 [11] = target: T2, Orexin receptor type 2; assay: Counterscreen assay for antagonists of the orexin 1 receptor (OX1R; HCRTR1): Homogeneous Time Resolved Fluorescence (HTRF)-based cell-based dose response assay for antagonists of the orexin 2 receptor (OX2R; HCRTR2), run by assay provider.; type: functional
[12] = target: Protein-tyrosine kinase 2-beta (Homo sapiens, UniProt Q14289);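 further: potency of inhibitors of PYK2 kinase phosphorylation of poly-GT substrate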
[13] = (§2) Counterscreen for antagonists of the orexin 1 receptor (OX1R; HCRTR1): Fluorescence-based cell-based high throughput dose response assay to identify antagonists of the parental CHO cell line. [Related pubchem assays (depositor defined):AID434989, AID435008, AID463079, AID485270, AID492963, AID492964, AID492965, AID493232, AID504699, AID504701]; type: functional
[14] = Luminescence Cell-Based Dose Confirmation HTS to Identify Activators of 5'UTR Stem-Loop Driven Alpha-Synuclein mRNA Translation in H4 Neuroglioblastoma Cells. [Related pubchem assays: 1829 (Project Summary), 1814 (Primary HTS)]; type: functional
CHO-K1 = assay: as §2, with “Homogeneous time resolved fluorescence (HTRF)-based” for “Fluorescence-based”, “cell-based” for “cell-based high throughput”, “CHO-K1” for “CHO”; type: functional; settings: Cricetulus griseus;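 further: potency for inhibition of ATP-stimulated IP1 production as antagonists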
H4 = assay: Luminescence Cell-Based Dose Response HTS to Identify Activators of 5'UTR Stem-Loop Driven Prion Protein mRNA Translation in H4 Neuroglioblastoma Cells. [Related pubchem assays: 1829 (Project Summary), 1814 (Primary HTS)]; type: functional; settings: Homo sapiens
Cytochrome P450 2C19 = Cytochrome P450 2C19 (Homo sapiens, UniProt P33261); assay: Cytochrome panel assay with activity outcomes. Panel member name: p450-cyp2c19 Compounds with AC50 equal or less than 10 uM are considered active; type: functional; settings: read-out: AC50
[15] = target: Peroxisome proliferator-activated receptor gamma/Nuclear receptor coactivator 2 (Homo sapiens, UniProt P37231); type: functional;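 further: agonist potency for raising coactivator recruitment to the receptor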
Chain of Peroxisome proliferator-activated receptor gamma/Nuclear receptor coactivator 2 (P37231 whole entry): as the sequence (P37231 whole entry) above
Chain of Peroxisome proliferator-activated receptor gamma/Nuclear receptor coactivator 2 (Q15596 whole entry, further chain): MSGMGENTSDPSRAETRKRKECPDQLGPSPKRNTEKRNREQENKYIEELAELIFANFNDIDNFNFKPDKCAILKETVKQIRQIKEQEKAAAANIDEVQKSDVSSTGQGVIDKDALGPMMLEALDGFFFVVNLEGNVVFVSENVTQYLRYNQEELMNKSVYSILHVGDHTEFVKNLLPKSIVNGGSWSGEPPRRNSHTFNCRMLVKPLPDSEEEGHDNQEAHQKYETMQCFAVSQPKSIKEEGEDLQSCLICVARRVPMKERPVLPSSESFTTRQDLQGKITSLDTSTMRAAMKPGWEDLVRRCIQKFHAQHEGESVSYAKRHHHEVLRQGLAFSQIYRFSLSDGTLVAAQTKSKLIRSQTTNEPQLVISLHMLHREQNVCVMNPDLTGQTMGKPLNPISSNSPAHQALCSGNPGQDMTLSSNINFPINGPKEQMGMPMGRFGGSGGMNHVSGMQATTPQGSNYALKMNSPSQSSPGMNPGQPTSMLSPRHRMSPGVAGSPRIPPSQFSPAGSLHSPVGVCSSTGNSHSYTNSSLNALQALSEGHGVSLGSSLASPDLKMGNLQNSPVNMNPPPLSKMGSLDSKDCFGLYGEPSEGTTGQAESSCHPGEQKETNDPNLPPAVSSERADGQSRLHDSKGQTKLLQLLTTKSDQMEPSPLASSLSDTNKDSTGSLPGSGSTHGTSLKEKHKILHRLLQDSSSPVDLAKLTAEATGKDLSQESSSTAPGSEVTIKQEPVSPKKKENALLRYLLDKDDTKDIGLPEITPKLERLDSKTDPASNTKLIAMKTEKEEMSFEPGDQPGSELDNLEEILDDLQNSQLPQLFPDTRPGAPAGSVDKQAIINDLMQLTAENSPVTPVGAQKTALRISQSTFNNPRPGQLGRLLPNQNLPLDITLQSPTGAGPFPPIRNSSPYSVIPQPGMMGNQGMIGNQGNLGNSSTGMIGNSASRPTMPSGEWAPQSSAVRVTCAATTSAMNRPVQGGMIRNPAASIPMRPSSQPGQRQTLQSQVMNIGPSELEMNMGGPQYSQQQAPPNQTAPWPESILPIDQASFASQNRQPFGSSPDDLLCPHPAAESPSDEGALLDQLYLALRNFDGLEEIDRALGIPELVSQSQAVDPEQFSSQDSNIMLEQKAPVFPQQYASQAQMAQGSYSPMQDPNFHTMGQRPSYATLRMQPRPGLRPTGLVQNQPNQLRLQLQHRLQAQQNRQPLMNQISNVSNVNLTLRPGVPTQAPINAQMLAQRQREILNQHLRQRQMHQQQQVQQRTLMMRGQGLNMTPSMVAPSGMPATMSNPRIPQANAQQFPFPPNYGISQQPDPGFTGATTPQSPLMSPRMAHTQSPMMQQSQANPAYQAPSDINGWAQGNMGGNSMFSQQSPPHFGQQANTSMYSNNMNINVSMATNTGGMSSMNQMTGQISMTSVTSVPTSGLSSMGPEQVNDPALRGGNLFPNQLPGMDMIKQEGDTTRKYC

[16] = target: T3, Orexin/Hypocretin receptor type 1; assay: as §1, with “Homogeneous Time Resolved Fluorescence (HTRF)-based” for “Fluorescence-based”; type: functional
Cytochrome P450 3A4 = Cytochrome P450 3A4 (Homo sapiens, UniProt P08684);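 further: CYP3A4 tested as one member of a cytochrome P450 panel screen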
Cytochrome P450 2C9 = Cytochrome P450 2C9 (Homo sapiens, UniProt P11712)
[17] = target: Sphingosine 1-phosphate receptor 1 (Homo sapiens, UniProt P21453); type: functional;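 further: Tango beta-arrestin reporter U2OS cells stimulated with S1P near its EC80; inhibitor potency meaning antagonism of receptor activation by the natural agonist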
[18] = target: Sphingosine 1-phosphate receptor 4 (Homo sapiens, UniProt O95977); assay: Fluorescence dose response cell-based high throughput screening assay for antagonists of the Sphingosine 1-Phosphate Receptor 4 (S1P4). [Related pubchem assays: 1524 (Confirmation in triplicates.), 1510 (Primary screen.)]; type: functional
[19] = Luminescence Cell-Based Dose Retest to Confirm Inhibitors of Cancer Stem Cells. [Related pubchem assays (depositor defined):AID2717, AID2721]; type: functional; settings: Homo sapiens
Estrogen receptor beta [20] = target: T4, Estrogen receptor beta (Homo sapiens, UniProt Q92731);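 further: recombinant ER-beta bound to coactivator SRC1 peptide in presence of estradiol agonist; inhibitors block coactivator peptide binding and lower the FRET signal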
T4 sequence (Q92731 whole entry): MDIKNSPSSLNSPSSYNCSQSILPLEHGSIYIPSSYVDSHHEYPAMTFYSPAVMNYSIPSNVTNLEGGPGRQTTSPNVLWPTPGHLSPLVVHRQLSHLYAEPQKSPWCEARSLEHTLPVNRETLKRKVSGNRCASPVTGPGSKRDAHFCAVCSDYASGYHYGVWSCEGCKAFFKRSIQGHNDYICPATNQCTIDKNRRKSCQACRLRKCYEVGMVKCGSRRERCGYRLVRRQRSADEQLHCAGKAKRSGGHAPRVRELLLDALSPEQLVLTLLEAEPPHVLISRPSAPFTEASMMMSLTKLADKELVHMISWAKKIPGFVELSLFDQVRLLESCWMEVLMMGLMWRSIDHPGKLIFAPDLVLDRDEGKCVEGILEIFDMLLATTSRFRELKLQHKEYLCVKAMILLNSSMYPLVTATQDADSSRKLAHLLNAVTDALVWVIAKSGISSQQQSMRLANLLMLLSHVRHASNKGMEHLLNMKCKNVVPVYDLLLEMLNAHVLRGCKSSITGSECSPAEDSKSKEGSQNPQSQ

[21] = target: T5, Heat shock 70 kDa protein 1A (Homo sapiens, UniProt P0DMV8); assay: small molecules displacing fluorescent ligand from Hsp70 – biochemical, fluorescence polarization, primary screen (AID 583)
T5 sequence (P0DMV8 whole entry): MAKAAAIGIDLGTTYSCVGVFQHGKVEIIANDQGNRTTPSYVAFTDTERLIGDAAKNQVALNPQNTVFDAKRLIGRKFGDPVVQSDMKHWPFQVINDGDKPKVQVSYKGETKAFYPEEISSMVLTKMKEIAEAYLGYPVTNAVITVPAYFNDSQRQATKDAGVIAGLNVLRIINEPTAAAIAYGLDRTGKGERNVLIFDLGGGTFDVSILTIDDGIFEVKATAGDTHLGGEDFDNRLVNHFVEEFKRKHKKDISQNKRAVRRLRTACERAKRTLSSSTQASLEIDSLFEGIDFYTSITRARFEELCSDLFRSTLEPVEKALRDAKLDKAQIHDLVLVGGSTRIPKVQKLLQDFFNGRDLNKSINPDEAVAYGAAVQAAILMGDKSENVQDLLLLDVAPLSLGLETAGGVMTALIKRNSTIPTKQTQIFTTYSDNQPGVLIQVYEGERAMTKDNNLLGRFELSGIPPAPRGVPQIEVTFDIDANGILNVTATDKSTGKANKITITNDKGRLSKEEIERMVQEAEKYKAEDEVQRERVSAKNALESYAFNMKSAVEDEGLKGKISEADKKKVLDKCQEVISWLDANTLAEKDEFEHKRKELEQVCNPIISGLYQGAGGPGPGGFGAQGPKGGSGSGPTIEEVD

Estrogen receptor [22] = target: T1, Estrogen receptor
Estrogen receptor beta [23] = target: T4, Estrogen receptor beta; assay: blockers of SRC-3 recruitment to ERβ – biochemical, ELISA, streptavidin-HRP readout, orthogonal assay, confirmation (AID 1060)
[24] = target: T5, Heat shock 70 kDa protein 1A; assay: small-molecule inhibition of Hsp70 – biochemical, TR-FRET (AID 786)
Bcl-2-like protein 10 = target: T6, Bcl-2-like protein 10 (Homo sapiens, UniProt Q9HD36); assay: Concentration-response of Bcl-B inhibitors by biochemical FP with TR3 (AID 1243); type: functional
T6 sequence (Q9HD36 whole entry): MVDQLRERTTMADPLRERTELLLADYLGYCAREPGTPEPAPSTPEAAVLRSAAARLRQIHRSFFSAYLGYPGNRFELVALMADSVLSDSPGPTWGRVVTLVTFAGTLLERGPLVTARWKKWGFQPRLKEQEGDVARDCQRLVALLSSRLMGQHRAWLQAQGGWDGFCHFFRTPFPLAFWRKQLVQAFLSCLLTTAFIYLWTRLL

[25] = target: T7, Neuropeptide Y receptor type 2 (Homo sapiens, UniProt P49146); assay: IC50 for human NPY-Y2 blockade – cell-based, counter-screen for NPY-Y1 antagonist project, dose response (AID 1278); type: functional
T7 sequence (P49146 whole entry): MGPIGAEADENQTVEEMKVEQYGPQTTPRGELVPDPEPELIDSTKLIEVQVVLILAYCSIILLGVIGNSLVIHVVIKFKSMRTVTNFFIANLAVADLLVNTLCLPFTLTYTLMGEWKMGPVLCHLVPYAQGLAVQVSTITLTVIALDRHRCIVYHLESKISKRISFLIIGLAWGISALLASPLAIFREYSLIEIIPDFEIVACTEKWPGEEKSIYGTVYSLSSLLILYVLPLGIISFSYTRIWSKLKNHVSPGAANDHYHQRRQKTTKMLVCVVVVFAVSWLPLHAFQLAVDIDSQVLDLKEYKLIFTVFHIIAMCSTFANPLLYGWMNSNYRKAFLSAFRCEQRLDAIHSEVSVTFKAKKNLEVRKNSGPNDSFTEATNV

[26] = target: T8, Neuropeptide Y receptor type 1 (Homo sapiens, UniProt P25929); assay: IC50 of human NPY-Y1 blockers – cell-based, dose response (AID 1277); type: functional
T8 sequence (P25929 whole entry): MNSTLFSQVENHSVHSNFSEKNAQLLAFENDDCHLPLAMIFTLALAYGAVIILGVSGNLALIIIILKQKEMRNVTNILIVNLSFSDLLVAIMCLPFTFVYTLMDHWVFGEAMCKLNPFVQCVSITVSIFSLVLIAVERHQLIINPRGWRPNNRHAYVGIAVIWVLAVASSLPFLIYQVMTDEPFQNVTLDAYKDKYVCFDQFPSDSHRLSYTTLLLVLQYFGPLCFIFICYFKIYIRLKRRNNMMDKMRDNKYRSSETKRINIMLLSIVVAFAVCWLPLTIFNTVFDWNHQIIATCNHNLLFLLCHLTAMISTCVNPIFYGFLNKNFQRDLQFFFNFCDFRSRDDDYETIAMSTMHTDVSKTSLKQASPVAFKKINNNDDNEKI

For `CCOC(=O)N1CCN(S(=O)(=O)c2ccc(C(=O)Nc3nc4ccc(F)cc4s3)cc2)CC1`, the AC50 [1] was 4.79 µM (active), the EC50 (Estrogen receptor [2]) was 11.6 µM (active) and the AC50 [3] was 3.38 µM (active). The AC50 [4] was > 70 µM (inactive).

In the case of `CSc1nc2ccc3nc(NC(=O)c4cccs4)sc3c2s1`, the IC50 [5] is reported as > 100 µM (active), the EC50 [6] is reported as 35.9 µM (not active) and the IC50 (Orexin receptor type 2 [7]) is reported as > 88.8 µM (inactive). The EC50 [8] was 28 µM (active), the IC50 [9] was 1.23 µM (active) and the EC50 [10] was 33.2 µM (not active). The IC50 (Orexin receptor type 2 [11]) was > 50 µM (inactive), the IC50 [12] was 6.5 µM (active) and the IC50 [13] was > 49.7 µM (inactive). For the same molecule, the EC50 [14] was 6.88 µM (active), the IC50 (CHO-K1) was > 66.2 µM (inactive) and the EC50 (H4) was > 120 µM (not active). For the same molecule, the AC50 (Cytochrome P450 2C19) was 2.82 µM (inconclusive), the EC50 [15] was 25.5 µM (not active) and the IC50 [16] was 0.846 µM (active). The AC50 (Cytochrome P450 3A4) was 20 µM (inconclusive) and the AC50 (Cytochrome P450 2C9) was 0.355 µM (inconclusive).

With `O=C1c2cccc3c([N+](=O)[O-])ccc(c23)C(=O)N1CC1CCCO1` (configuration not stated) the IC50 [17] was 3.72 µM (active) and the IC50 [18] was 1.3 µM (active).

With `Cc1ccc(C(=O)ONc2ccc(N=NC(=O)c3ccccc3O)cc2)cc1` the AC50 [19] was 1.51 µM (active), the IC50 (Estrogen receptor beta [20]) was 8.2 µM (active) and the IC50 [21] was 25.2 µM (active). For the same molecule, the IC50 (Estrogen receptor [22]) was 8.44 µM (active), the IC50 (Estrogen receptor beta [23]) was < 0.023 µM (not active) and the IC50 [24] was 12.4 µM (active).

For `COc1ccccc1NC(=O)C1=C(C)NC(SCC(=O)c2ccc(Br)cc2)=C(C#N)C1c1ccco1` (configuration not stated), the EC50 (Bcl-2-like protein 10) was 6.24 µM (active).

In the case of `Cc1cccc(OCCNC(=O)c2ccc(Oc3ccc(C(F)(F)F)cc3[N+](=O)[O-])cc2)c1`, the IC50 [25] is reported as > 35 µM (not active) and the IC50 [26] is reported as > 35 µM (not active).
